Earlier results in patent US20260284015A1, “DOSAGE REGIME OF CRINECERFONT FOR TREATING CONGENITAL ADRENAL HYPERPLASIA” (Neurocrine Biosciences, Inc., priority 2023, published 2026).

Details: glucocorticoid dose conversion factor relative to hydrocortisone

Row | SMILES | Hydrocortisone dose equivalent conversion [×]
1 | C[C@H]1C[C@@H]2[C@H]([C@@H](O)C[C@@]3(C)[C@H]2CC[C@]3(O)C(=O)CO)[C@@]2(C)C=CC(=O)C=C12 [Methylprednisolone] | 4
2 | C[C@@H]1C[C@H]2[C@@H]3CCC4=CC(=O)C=C[C@]4(C)[C@@]3(F)[C@@H](O)C[C@]2(C)[C@@]1(O)C(=O)CO [Dexamethasone] | 60
3 | C[C@]12C=CC(=O)C=C1CC[C@@H]1[C@@H]2[C@@H](O)C[C@@]2(C)[C@H]1CC[C@]2(O)C(=O)CO [Prednisolone] | 4
